For assay [1], the system named is HCT116 homozygous MTAP knockout cells. The experiment in a line: Proliferation assay (CellTiter-Glo, 10 days of treatment), HCT116 MTAP knockout. The format is cell-based. The conditions noted are these: read-out: Proliferation HCT116MTAP_KO IC50. In outline: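 Cells (250/well) seeded in McCoy's 5A with 10% FBS, then treated the next day with a PRMT5 inhibitor dose response at 37 °C, 5% CO2. On day 6 they were split 1:10 into fresh medium with the same compound concentration. CellTiter-Glo viability was read on day 11 and IC50 taken after 10 days of treatment.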
A general note: Cellular ATP, detected with luciferase, serves as a proxy for viable cell number.

Assay [2] concerns PRMT5-dependent Symmetric Di-methyl Arginine signal in HCT116 homozygous MTAP knockout cells. The experiment in a line: SYM11 In-Cell Western, HCT116 MTAP knockout. Format: cell-based.
In a further assay the test system is HCT116 parental cells. The experiment in a line: Proliferation assay (CellTiter-Glo, 10 days of treatment), HCT116 parental. Format: cell-based. The method, then: (§1) Control samples were analyzed in parallel.
Briefly, on Day 0, 250 HCT116 parental or HCT116 homozygous MTAP knockout cell were seeded in 96 well plates in McCoy's 5A supplemented with 10% fetal bovine serum and pen/strep and the cells were incubated overnight at 37° C. plus 5% CO2.
The following day, cells were treated with DMSO vehicle control or a dose response of PRMT5 inhibitors and incubated at 37 C plus 5% CO2 for five days. On Day 6, the cells were trypsinized and split 1:10 into new 96-well plates with fresh medium containing the same concentration of PRMT5 inhibitor and incubated for an additional 5 days at 37° C. plus 5% CO^2.
On Day 11, the viability of the cells was measured using a CTG assay kit (CellTiter-Glo; Promega cat.no G7573) in accordance with the manufacturer's instructions. The IC50 values for each compound after 10 days of treatment were calculated using GraphPad PRISM software.

For assay [3], the system named is PRMT5-dependent Symmetric Di-methyl Arginine signal in HCT116 parental cells. The assay can be described thus: SYM11 In-Cell Western, HCT116 parental. The format is cell-based. The conditions noted are these: 4 days of treatment, SYM11/DRAQ5 ratio. How it is done: as §1
Briefly, on Day 0, 2,000 HCT116 parental or HCT116 homozygous MTAP knockout cells were seeded in 96 well plates in McCoy's 5A supplemented with 10% fetal bovine serum and pen/strep and the cells were incubated overnight at 37° C. plus 5% CO2. The following day, cells were treated with DMSO vehicle control or a dose response of PRMT5 inhibitors, and incubated at 37° C. plus 5% CO^2 for four days.
After 4 days of treatment, the cells were fixed by adding 50 μl of 4% paraformaldehyde solution to each well and the cells were incubated for 20 min at room temperature. The paraformaldehyde solution was removed, 150 μl of ice-cold methanol was added and the plate was placed −20° C. for 10 minutes. The methanol was removed, 150 μl of Odyssey Blocking buffer+0.05% Tween20 was added and the plate was incubated at room temperature with shaking for one hour.
The primary SYM11 antibody solution was removed by aspiration and the wells were washed three consecutive times with phosphate buffered saline containing 0.1% Tween-20 (PBST).
The secondary antibody solution was removed by aspiration and the wells were washed three consecutive times with PB ST.
The SYM11 signal and the DRAQ5 signal were quantified using a Li-Cor Odyssey machine reading at […], respectively. The SYM11/DRAQ5 ratio was used to calculate the inhibition of Symmetric Dimethyl Arginine as percent of DMSO control.

The target in assay [4] is T1, PRMT5/MEP50 complex (Homo sapiens (Human), UniProt O14744). The experiment in a line: PRMT5:MEP50 HotSpot Assay (full-length histone H2A substrate, plus and minus MTA). Format: biochemical. The conditions noted are these: in the presence of 2 μM MTA. The gist of the method:
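Radiometric filter-binding format using recombinant full-length histone H2A as substrate. After the reaction was stopped, mixtures went onto filter paper and tritiated H2A was quantified by scintillation counting.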

In assay [5] the target is T1, PRMT5/MEP50 complex. The assay can be described thus: PRMT5:MEP50 FlashPlate Assay (histone H4 peptide substrate, plus and minus MTA). Format: biochemical. How it is done:
The PRMT5 inhibitory activity of compounds of the present invention was determined using either a PRMT5:MEP50 FlashPlate Assay (Reaction Biology Corporation) or a PRMT5:MEP50 HotSpot Assay (Reaction Biology Corporation).
1. PRMT5:MEP50 FlashPlate Assay

Where [6] appears, read: Homo sapiens, HCT-116, 96 h, HCT116 homozygous MTAP knockout cells, 4 days of treatment, SYM11/DRAQ5 ratio, read-out: In-cell-Western (SYM11) HCT116 MTAP_KO IC50.
The mark [7] stands for this setting: HCT116 homozygous MTAP knockout cells, 4 days of treatment, SYM11/DRAQ5 ratio, read-out: In-cell-Western (SYM11) HCT116 MTAP_KO IC50.
The mark [8] stands for this setting: IC50 + 2 μM MTA (nM), in the presence of 2 μM MTA.
[9] abbreviates: in the absence of MTA, read-out: IC50.

The text below walks through data of patent publication US11479551B2, “MTA-cooperative PRMT5 inhibitors” (Mirati Therapeutics, Inc., priority 2019, dated 2022).

The structures appear in SMILES notation. Where two headings read alike, the source gives them in different places.

T1 sequence (O14744 2-637): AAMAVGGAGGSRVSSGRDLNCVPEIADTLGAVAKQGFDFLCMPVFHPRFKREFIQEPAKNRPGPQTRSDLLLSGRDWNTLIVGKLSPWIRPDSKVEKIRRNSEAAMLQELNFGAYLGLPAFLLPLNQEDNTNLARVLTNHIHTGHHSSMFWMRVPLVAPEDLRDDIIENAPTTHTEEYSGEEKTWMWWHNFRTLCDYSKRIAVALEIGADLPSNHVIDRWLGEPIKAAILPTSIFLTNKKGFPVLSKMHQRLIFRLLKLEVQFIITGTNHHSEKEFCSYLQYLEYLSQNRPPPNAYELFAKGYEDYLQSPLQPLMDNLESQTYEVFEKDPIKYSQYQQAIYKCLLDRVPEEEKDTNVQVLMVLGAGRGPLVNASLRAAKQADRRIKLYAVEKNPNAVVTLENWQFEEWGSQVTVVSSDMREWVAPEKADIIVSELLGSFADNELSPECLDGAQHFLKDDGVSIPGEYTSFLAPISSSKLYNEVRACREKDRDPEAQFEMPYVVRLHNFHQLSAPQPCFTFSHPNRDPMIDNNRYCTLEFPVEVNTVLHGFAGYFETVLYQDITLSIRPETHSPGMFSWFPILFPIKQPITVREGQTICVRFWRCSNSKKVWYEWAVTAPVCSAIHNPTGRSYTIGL
T1 sequence (Q9BQA1 2-342 partner): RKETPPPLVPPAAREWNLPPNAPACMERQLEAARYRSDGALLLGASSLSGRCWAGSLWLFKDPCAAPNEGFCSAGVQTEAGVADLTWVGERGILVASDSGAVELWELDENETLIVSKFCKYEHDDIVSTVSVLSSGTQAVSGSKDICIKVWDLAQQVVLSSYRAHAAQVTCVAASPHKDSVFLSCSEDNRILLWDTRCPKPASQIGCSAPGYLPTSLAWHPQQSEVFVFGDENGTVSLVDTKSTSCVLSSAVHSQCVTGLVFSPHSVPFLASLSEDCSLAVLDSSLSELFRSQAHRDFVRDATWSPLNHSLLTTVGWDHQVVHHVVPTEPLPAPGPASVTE

With `CCc1cc(-c2cnn(C)c2-c2ccc3ccccc3c2C#N)cc2c(CN)n[nH]c(=O)c12` [Example 15-1, 2-[4-[4-(aminomethyl)-8-ethyl-1-oxo-2H-phthalazin-6-yl]-2-methyl-pyrazol-3-yl]naphthalene-1-carbonitrile], the IC50 in assay [1] (Homo sapiens, HCT-116, 240 h) was 51 nM; in assay [2] (setting [6]) it was 22 nM; in the assay on HCT116 parental cells (Homo sapiens, HCT-116, 240 h) it was 1560 nM; in assay [3] (Homo sapiens, HCT-116, 96 h), more than 1000 nM.
With `CC(N)c1n[nH]c(=O)c2ccc(-c3cnn(C)c3-c3ccc4ccccc4c3C#N)cc12` (single isomer, unassigned) [Example 9-5, 2-[4-[4-(1-aminoethyl)-1-oxo-2H-phthalazin-6-yl]-2-methyl-pyrazol-3-yl]naphthalene-1-carbonitrile], the IC50 in assay [1] is 125 nM; in assay [2] (setting [7]), 42 nM; in the assay on HCT116 parental cells (Homo sapiens, HCT-116, 240 h) it was 6440 nM; in assay [3] (Homo sapiens, HCT-116, 96 h) it was more than 1000 nM.
Take `Cc1cc(-c2c(-c3ccc4c(=O)[nH]nc(CN)c4c3)cnn2C)c(C#N)c2ccccc12` [Example 12-10, 2-(4-(4-(aminomethyl)-1-oxo-1,2-dihydrophthalazin-6-yl)-1-methyl-1H-pyrazol-5-yl)-4-methyl-1-naphthonitrile]: the IC50 in assay [1] (Homo sapiens, HCT-116, 240 h) was 38 nM; in assay [2] (setting [6]), 3 nM; in the assay on HCT116 parental cells (Homo sapiens, HCT-116, 240 h) it was 1330 nM; in assay [3] (Homo sapiens, HCT-116, 96 h), more than 1000 nM.
Consider `CCc1c(Cl)ccc(-c2c(-c3ccc4c(=O)[nH]nc(CN)c4c3)cnn2C)c1C#N` [Example 4-199, 6-(4-(4-(aminomethyl)-1-oxo-1,2-dihydrophthalazin-6-yl)-1-methyl-1H-pyrazol-5-yl)-3-chloro-2-ethylbenzonitrile], for which the IC50 in assay [1] (Homo sapiens, HCT-116, 240 h) amounted to 120 nM; in assay [2] (setting [6]), 2 nM; at PRMT5/MEP50 complex [4] (IC50 + 2 μM MTA), 276 nM; in the assay with HCT116 parental cells (Homo sapiens, HCT-116, 240 h) it was 8850 nM.
Take `Cn1ncc(-c2ccc3c(=O)[nH]nc(CN)c3c2)c1-c1cc(F)c2ccccc2c1C#N` [Example 4-224, 2-(4-(4-(aminomethyl)-1-oxo-1,2-dihydrophthalazin-6-yl)-1-methyl-1H-pyrazol-5-yl)-4-fluoro-1-naphthonitrile]: the IC50 in assay [1] (Homo sapiens, HCT-116, 240 h) was 416 nM; in assay [2] (setting [6]), 10 nM; in the assay on HCT116 parental cells (Homo sapiens, HCT-116, 240 h), 7810 nM; in assay [3] (Homo sapiens, HCT-116, 96 h) it was more than 1000 nM.
In the case of `COc1ccc(C#N)c(-c2c(-c3ccc4c(=O)[nH]nc(CN)c4c3)cnn2C)c1` [Example 4-104, 2-(4-(4-(aminomethyl)-1-oxo-1,2-dihydrophthalazin-6-yl)-1-methyl-1H-pyrazol-5-yl)-4-methoxybenzonitrile], the IC50 at PRMT5/MEP50 complex [5] (setting [8]) was determined as 0.5 nM; at PRMT5/MEP50 complex [5] (setting [9]), 28 nM; in assay [1] (Homo sapiens, HCT-116, 240 h), 5320 nM; in assay [2] (setting [6]), 391 nM; on PRMT5/MEP50 complex [4] (IC50 + 2 μM MTA), 794 nM; in assay [3] (Homo sapiens, HCT-116, 96 h), 3330 nM.
Take `CCc1c(OC)ccc(-c2c(-c3ccc4c(=O)[nH]nc(CN)c4c3)cnn2C)c1C#N` [Example 4-201, 2-(4-(4-(aminomethyl)-1-oxo-1,2-dihydrophthalazin-6-yl)-1-methyl-1H-pyrazol-5-yl)-6-ethyl-5-methoxybenzonitrile]: the IC50 is 155 nM in assay [1] (Homo sapiens, HCT-116, 240 h); 16 nM in assay [2] (setting [6]); 948 nM at PRMT5/MEP50 complex [4] (IC50 + 2 μM MTA); more than 10000 nM in the assay on HCT116 parental cells (Homo sapiens, HCT-116, 240 h).
On to `Cn1ncc(-c2ccc3c(=O)[nH]nc(CN)c3c2)c1-c1c(F)c(Cl)cc(OC2CC2)c1C#N` [Example 4-230, 2-(4-(4-(aminomethyl)-1-oxo-1,2-dihydrophthalazin-6-yl)-1-methyl-1H-pyrazol-5-yl)-4-chloro-6-cyclopropoxy-3-fluorobenzonitrile], for which the IC50 was 6 nM in assay [2] (Homo sapiens, HCT-116, 96 h, read-out: In-cell-Western (SYM11) HCT116 MTAP_KO IC50, HCT116 homozygous MTAP knockout cells, 4 days of treatment, SYM11/DRAQ5 ratio); 1890 nM in the assay with HCT116 parental cells (Homo sapiens, HCT-116, 240 h); more than 1000 nM in assay [3] (Homo sapiens, HCT-116, 96 h).
`COc1cccc(-c2c(-c3ccc4c(=O)[nH]nc(CN)c4c3)cnn2C)c1C#N` [Example 4-107, 2-(4-(4-(aminomethyl)-1-oxo-1,2-dihydrophthalazin-6-yl)-1-methyl-1H-pyrazol-5-yl)-6-methoxybenzonitrile]: the IC50 at PRMT5/MEP50 complex [5] (setting [8]) came to 0.5 nM; on PRMT5/MEP50 complex [5] (setting [9]), 37 nM; in assay [1] (Homo sapiens, HCT-116, 240 h) it was 1060 nM; in assay [2] (setting [6]), 31 nM; on PRMT5/MEP50 complex [4] (IC50 + 2 μM MTA), 760 nM; in assay [3] (Homo sapiens, HCT-116, 96 h) it was 10000 nM.
Regarding `Cc1ccc(C#N)c(-c2c(-c3ccc4c(=O)[nH]nc(CN)c4c3)cnn2C)c1` [Example 4-105, 2-(4-(4-(aminomethyl)-1-oxo-1,2-dihydrophthalazin-6-yl)-1-methyl-1H-pyrazol-5-yl)-4-methylbenzonitrile], the IC50 on PRMT5/MEP50 complex [5] (setting [8]) was 1.8 nM; on PRMT5/MEP50 complex [5] (setting [9]) it was 71 nM; in assay [1] (Homo sapiens, HCT-116, 240 h), 1400 nM; in assay [2] (setting [6]), 469 nM; on PRMT5/MEP50 complex [4] (IC50 + 2 μM MTA), 1000 nM; in assay [3] (Homo sapiens, HCT-116, 96 h), 10000 nM.
With `NCc1n[nH]c(=O)c2ccc(-c3cnc4[nH]cc(-c5ccccc5)c4c3)cc12` [Example 4-190, 4-(aminomethyl)-6-(3-phenyl-1H-pyrrolo[2,3-b]pyridin-5-yl)phthalazin-1(2H)-one], the IC50 in assay [1] (Homo sapiens, HCT-116, 240 h) was 1980 nM; in assay [2] (setting [6]), more than 3330 nM; on PRMT5/MEP50 complex [4] (IC50 + 2 μM MTA), 278 nM; in assay [3] (Homo sapiens, HCT-116, 96 h), more than 3330 nM.
For `Cc1ccc(-c2c(-c3ccc4c(=O)[nH]nc(CN)c4c3)cnn2C)c(C#N)c1` [Example 4-106, 2-(4-(4-(aminomethyl)-1-oxo-1,2-dihydrophthalazin-6-yl)-1-methyl-1H-pyrazol-5-yl)-5-methylbenzonitrile], the IC50 on PRMT5/MEP50 complex [5] (setting [8]) came to 0.5 nM; on PRMT5/MEP50 complex [5] (setting [9]) it was 56 nM; in assay [1] (Homo sapiens, HCT-116, 240 h) it was 1600 nM; in assay [2] (setting [6]) it was 261 nM; on PRMT5/MEP50 complex [4] (IC50 + 2 μM MTA), 816 nM; in assay [3] (Homo sapiens, HCT-116, 96 h), 3330 nM.
Regarding `CCOc1cccc(-c2c(-c3cc(C)c4c(=O)[nH]nc(CN)c4c3)cnn2C)c1C#N` [Example 10-9, 2-(4-(4-(aminomethyl)-8-methyl-1-oxo-1,2-dihydrophthalazin-6-yl)-1-methyl-1H-pyrazol-5-yl)-6-ethoxybenzonitrile], the IC50 is 489 nM in assay [1] (Homo sapiens, HCT-116, 240 h); 8 nM in assay [2] (setting [6]); 1930 nM on PRMT5/MEP50 complex [4] (IC50 + 2 μM MTA); 9820 nM in the assay on HCT116 parental cells (Homo sapiens, HCT-116, 240 h).
On to `Cn1ncc(-c2ccc3c(=O)[nH]nc(CN)c3c2)c1-c1ccc(Cl)cc1C#N` [Example 4-101, 2-(4-(4-(aminomethyl)-1-oxo-1,2-dihydrophthalazin-6-yl)-1-methyl-1H-pyrazol-5-yl)-5-chlorobenzonitrile], for which the IC50 on PRMT5/MEP50 complex [5] (setting [8]) stood at 0.5 nM; on PRMT5/MEP50 complex [5] (setting [9]) it was 17 nM; in assay [1] (Homo sapiens, HCT-116, 240 h) it was 2310 nM; in assay [2] (setting [6]) it was 376 nM; on PRMT5/MEP50 complex [4] (IC50 + 2 μM MTA), 892 nM; in assay [3] (Homo sapiens, HCT-116, 96 h), 6670 nM.
For `Cn1ncc(-c2ccc3c(=O)[nH]nc(CN)c3c2)c1-c1c(F)cc2ccccc2c1C#N` (single isomer, unassigned) [Example 16-1], the IC50 came out at 2 nM in assay [2] (setting [7]), 38 nM on PRMT5/MEP50 complex [4] (read-out: IC50 + 2 μM MTA), 757 nM in the assay with HCT116 parental cells and 316 nM in assay [3].
